Our source for the GI50 and TGI values is PubChem BioAssay (NCI).

What all share (experiment): NCI-60 cell line screen, 48 h
Test [1] concerns UO-31 renal.
In test [2] the test system is A549 NSCLC.
Test [3] deals with A498 renal.
The test system of test [4] is RXF 393 renal.
Test [5] concerns M14 melanoma.
Test [6] concerns NCI-H226 lung.
Test [7] deals with SNB-19 CNS.
The subject of test [8] is TK-10 renal.
The subject of test [9] is OVCAR-3 ovarian.
Test [10] deals with NCI-H460 lung.

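Compound exposure: 48 hours, 5 concentrations, 96-well plates. GI50 marks 50% less growth. The concentration for full growth arrest is given as TGI.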

With `N#C/C(C(=S)Nc1ccccc1)=C1/NN=C2c3ccccc3C(=O)NN21`, the GI50 in [1] was 33.4 µM; in test [2], 34 µM; in [3], 21.3 µM; in [4], 0.512 µM; in [5] it was 19.3 µM; in test [6], 49.6 µM. The GI50 was 30.4 µM in test [7], 21.2 µM in test [8], 21.2 µM in test [9] and 26.3 µM in test [10]. The TGI was greater than 100 µM in test [1]; greater than 100 µM in [2]; 53.1 µM in [3]; 22.9 µM in [4]; 40.6 µM in test [5]; greater than 100 µM in test [6]. The TGI is greater than 100 µM in [7], 50.4 µM in test [8], 52.7 µM in test [9] and 73.2 µM in [10].

With `COC(=O)C(=O)C(C(=O)C=C(C)C)C(=O)C(=O)Nc1ccc(Cl)cc1C` (stereo not given), the TGI in [1], in [2], in test [3], in test [4], in test [5] and in [6] was greater than 100 µM throughout. The TGI in test [7], in [8], in test [9] and in test [10] was greater than 100 µM each time.

Regarding `O=C1C2=C(CC3C(C2)C3(Br)Br)C(=O)C2=C1CC1C(C2)C1(Br)Br` (stereo not given), the TGI in test [1], in test [2], in [3], in [4], in test [5] and in test [6] was greater than 100 µM each time. Further, the TGI in [7], in test [8], in test [9] and in test [10] was greater than 100 µM throughout.

`Cn1cc(C2=C(c3cn(CCCN=C(N)N)c4ccccc34)C(=O)NC2=O)c2ccccc21`: the GI50 in [1] is greater than 25 µM; in [2] it was greater than 25 µM; in [3], greater than 25 µM; in test [4], greater than 20 µM; in [5], greater than 25 µM; in test [6] it was greater than 25 µM. For the same molecule, the GI50 in test [7], in [8], in test [9] and in [10] was greater than 25 µM throughout. Also, the TGI in test [1], in test [2], in test [3], in test [4], in test [5] and in [6] was greater than 25 µM in each case. The TGI in test [7], in [8], in [9] and in [10] was greater than 25 µM throughout.

Take `O=C(C[C@@H](C(=O)NCc1cccc(C(F)(F)F)c1)N1C(=O)[C@@H](N2C(=O)OC[C@@H]2c2ccccc2)[C@H]1/C=C/c1ccccc1)NC1CCN(Cc2ccccc2)CC1`: the GI50 in test [1] is 13.5 µM; in [2] it was 5.86 µM; in test [3], 2.19 µM; in test [4], 1.87 µM; in [5], 4.58 µM; in [6], 48.2 µM. Moreover, the GI50 in test [7] was 9.33 µM; in [8] it was 10.2 µM; in test [9] it was 10.4 µM; in test [10] it was 6.58 µM. For the same molecule, the TGI in [1] was 55.3 µM; in test [2], 21.4 µM; in test [3], 11.9 µM; in test [4], 4.88 µM; in test [5], 20.4 µM; in test [6] it was greater than 100 µM. Further, the TGI in [7] amounted to 36.5 µM; in test [8], 23.4 µM; in test [9] it was 25.1 µM; in test [10], 21.8 µM.

Take `COc1ccc(C(=O)/C=C/c2cccnc2Nc2cc(OC)c(OC)c(OC)c2)cc1`: the GI50 in [1] was 1.17 µM; in test [2], 1.67 µM; in [3], 1.8 µM; in test [4], 1.47 µM; in test [5], 2.55 µM; in [6], 2.51 µM. Further, the GI50 in test [7] was 2.82 µM; in test [8], 1.83 µM; in test [9], 0.617 µM; in [10], 1.84 µM. For the same molecule, the TGI in test [1] was found to be 3.04 µM; in [2], 18.5 µM; in test [3], 13.1 µM; in test [4], 5.36 µM; in test [5] it was 11.9 µM; in test [6], 8.86 µM. Further, the TGI in test [7] was found to be 17.3 µM; in [8] it was 5.53 µM; in [9], 4.72 µM; in [10], 8.57 µM.

As to `CC(C)(C)OC(=O)N(CCCN(CCn1c2c(c3ccccc3c1=O)C(=O)c1ccccc1-2)C(=O)OC(C)(C)C)CCn1c2c(c3ccccc3c1=O)C(=O)c1ccccc1-2`, the GI50 is greater than 50 µM in [1]; greater than 50 µM in test [2]; greater than 50 µM in test [3]; 25.9 µM in test [4]; greater than 50 µM in test [5]; greater than 50 µM in test [6]. For the same molecule, the GI50 in test [7] was greater than 50 µM; in test [8], greater than 50 µM; in [9], 21.2 µM; in test [10] it was 49.7 µM. The TGI in test [1], in test [2], in test [3], in test [4], in test [5] and in test [6] was greater than 50 µM in each case. Also, the TGI in test [7], in test [8], in test [9] and in test [10] was greater than 50 µM in each case.

Turning to `CN1C(NC(=O)c2ccc(Cl)nc2)=NS(=O)(=O)c2cc(Cl)ccc21`, the GI50 in test [1], in test [2], in test [3], in test [4], in test [5] and in test [6] was greater than 100 µM each time. Also, the GI50 in test [7], in test [8], in test [9] and in [10] was greater than 100 µM each time. Besides, the TGI in [1], in test [2], in test [3], in test [4], in [5] and in test [6] was greater than 100 µM in each case. The TGI in test [7], in test [8], in [9] and in test [10] was greater than 100 µM throughout.
